Laboratory results from patent publication US8569336B2, “Compounds for the treatment of inflammatory disorders” (priority 2008, dated 2013).
Read-outs that look alike come from different tables or passages of the source.

Assays:
[1] = target: T1, purified catalytic domain of recombinant human TACE (rhTACEc) (Homo sapiens, UniProt P78536, N452Q/S266A); assay: TACE kinetic assay: cleavage of internally quenched peptide substrate TNF-FRET 2 (Ki); assay type: biochemical; conditions: TNF-FRET 2 substrate
T1 construct: 6xHis (C); made in house; host or cells: baculovirus/Hi5 insect cells
T1 sequence (P78536 215-477 S266A/N452Q): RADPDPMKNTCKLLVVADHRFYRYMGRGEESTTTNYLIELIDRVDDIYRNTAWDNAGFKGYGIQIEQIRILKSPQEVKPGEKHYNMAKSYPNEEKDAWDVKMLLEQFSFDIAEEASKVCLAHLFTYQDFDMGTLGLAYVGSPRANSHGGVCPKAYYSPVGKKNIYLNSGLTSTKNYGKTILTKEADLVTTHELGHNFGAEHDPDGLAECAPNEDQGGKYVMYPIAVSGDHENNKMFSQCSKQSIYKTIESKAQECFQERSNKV

[2] = test system: TNF-α production from human whole blood; assay: Inhibition of TNF-α production from human whole blood (hWBA), LPS stimulated, ELISA; assay type: cell-based; conditions: Homo sapiens, TNF-α by ELISA, read-out: hWBA (IC50)
[3] = 3.5 h, human whole blood diluted 1:1, LPS stimulated, 3.5 h
[4] = LPS-stimulated human whole blood
[5] = human whole blood diluted 1:1, LPS stimulated

| Structure (SMILES) | Ki ([1]; read-out: Ki) | IC50 [2, 3] | Ki ([1]; Ki) | IC50 [2, 4] | IC50 [2, 5] |
| --- | --- | --- | --- | --- | --- |
| COc1ccc2c(c1)C(=O)N(C[C@@]1(c3cc4cc(C(=O)NCCNC(C)C)c(F)cc4o3)NC(=O)NC1=O)C2 [Compound 1276] | 1.2 nM | 251 nM |  |  |  |
| COc1ccc2c(c1)C(=O)N(C[C@@]1(c3ccc(-c4ccc(C5(CN)NC(=O)NC5=O)cc4)cc3)NC(=O)NC1=O)C2 (some centres unmarked) [Compound 2175] | 2.08 nM | 1760 nM |  |  |  |
| COc1ccc2c(c1)C(=O)N(C[C@@]1(c3cc4nc(NC(=O)[C@@H](C)O)ccc4o3)NC(=O)NC1=O)C2 [Compound 2137] | 0.36 nM | 310 nM |  |  |  |
| COc1ccc2c(c1F)C(=O)N(C[C@@]1(c3cc4nc(N5CCOCC5)c(F)cc4o3)NC(=O)NC1=O)C2 [Compound 1913] |  |  | 0.53 nM | 657 nM |  |
| CN(C)C1CCN(c2ccc3oc(C4(CN5CCc6ccsc6C5=O)NC(=O)NC4=O)cc3n2)CC1 (centres unmarked) [Compound 2495] | 0.71 nM |  |  |  | 650 nM |
| COC(=O)c1cc2cc([C@]3(CN4Cc5ccc(OC)cc5C4=O)NC(=O)NC3=O)oc2cc1F [Compound 1271] | 0.45 nM | 1050 nM |  |  |  |
| COc1ccc2c(c1)C(=O)N(C[C@@]1(c3cc4cc(N5CC(=O)NS5(=O)=O)ccc4o3)NC(=O)NC1=O)C2 [Compound 2230] | 0.781 nM | 4410 nM |  |  |  |
| COc1ccc2c(c1)C(=O)N(C[C@@]1(c3cc4cc(C)ncc4o3)NC(=O)NC1=O)C2 [Compound 2302] | 0.437 nM |  |  |  | 470 nM |
| CCNC(=O)NCc1ccc2oc([C@]3(CN4Cc5ccc(OC)cc5C4=O)NC(=O)NC3=O)cc2c1 [Compound 2485] | 0.76 nM |  |  |  | 1990 nM |
| COc1ccc2c(c1)C(=O)N(C[C@@]1(c3cc4nc(Nc5ccccn5)ccc4o3)NC(=O)NC1=O)C2 [Compound 2128] | 0.888 nM | 1910 nM |  |  |  |
| COc1ccc2c(c1)C(=O)N(C[C@@]1(c3cc4c(N5CCNCC5)nccc4o3)NC(=O)NC1=O)C2 [Compound 2279] |  | 234 nM | 2.55 nM |  |  |
| COc1ccc2c(c1)C(=O)N(C[C@@]1(c3cc4nc(N5C(=O)CC[C@@H]5CO)ccc4o3)NC(=O)NC1=O)C2 [Compound 2157] | 0.731 nM | 382 nM |  |  |  |
| COc1ccc2c(c1)C(=O)N(C[C@@]1(c3cc4cc(-c5cnccc5OC)ccc4o3)NC(=O)NC1=O)C2 [Compound 2198] | 0.637 nM | 1890 nM |  |  |  |
| COc1ccc2c(c1)C(=O)N(C[C@@]1(c3cc4cc(CNC(=O)N(C)C)ccc4o3)NC(=O)NC1=O)C2 [Compound 2486] | 0.49 nM |  |  |  | 1230 nM |
| COc1ccc2c(c1)C(=O)N(C[C@@]1(c3cc4cc(-c5ccc(N(C)C)nc5)ccc4o3)NC(=O)NC1=O)C2 [Compound 1184] | 0.85 nM | 2710 nM |  |  |  |
| COc1ccc2c(c1F)C(=O)N(C[C@@]1(c3cc4cc(-c5c(C)nn(C)c5C)c(F)cc4o3)NC(=O)NC1=O)C2 [Compound 1181] | 0.41 nM |  |  | 354 nM |  |
| COc1ccc2c(c1)C(=O)N(C[C@@]1(c3cc4nc(-c5cncc(C#N)c5)ccc4o3)NC(=O)NC1=O)C2 [Compound 2471] | 0.779 nM |  |  |  | 3660 nM |
| COc1ccc2c(c1F)C(=O)N(C[C@@]1(c3cc4nc(N(c5cn[nH]c5)C5CCNCC5)ccc4o3)NC(=O)NC1=O)C2 [Compound 1724] | 1.31 nM |  |  | 185 nM |  |
| COc1ccc2c(c1)C(=O)N(C[C@@]1(c3cc4cnc(C#N)cc4o3)NC(=O)NC1=O)C2 [Compound 322] | 0.67 nM |  |  | 759 nM |  |
| COc1ccc2c(c1F)C(=O)N(C[C@@]1(c3cc4c(ccc5sc(N)nc54)o3)NC(=O)NC1=O)C2 [Compound 1741] | 0.22 nM |  |  | 231 nM |  |
| COc1ccc2c(c1F)C(=O)N(C[C@@]1(c3cc4nc(N5CC[C@@H](O)C5)ccc4o3)NC(=O)NC1=O)C2 [Compound 1521] | 0.3 nM |  |  | 169 nM |  |
| COc1ccc2c(c1F)C(=O)N(C[C@@]1(c3cc4cc(-c5c(C)n[nH]c5C)c(F)cc4o3)NC(=O)NC1=O)C2 [Compound 1183] | 0.14 nM |  |  | 232 nM |  |
| COc1ccc2c(c1)C(=O)N(C[C@@]1(c3cc4nc(-c5c(C)noc5C)ccc4o3)NC(=O)NC1=O)C2 [Compound 1520] | 0.5 nM |  |  | 1190 nM |  |
| COc1ccc2c(c1)C(=O)N(C[C@@]1(c3cc4cc(C5(C)CNC(=O)N5)cc(C)c4o3)NC(=O)NC1=O)C2 (some centres unmarked) [Compound 2212] | 0.095 nM | 2860 nM |  |  |  |
| COc1ccc2c(c1)C(=O)N(C[C@@]1(c3cc4ncc(C5=NCCN5)cc4o3)NC(=O)NC1=O)C2 [Compound 1942] |  |  | 2.09 nM | 3880 nM |  |
| CCN1CCN(c2cc3oc([C@]4(CN5Cc6ccc(OC)c(F)c6C5=O)NC(=O)NC4=O)cc3nc2C)CC1 [Compound 1920] | 2.16 nM |  |  | 674 nM |  |
| COc1ccc2c(c1)C(=O)N(C[C@@]1(c3cc4c(O)nccc4o3)NC(=O)NC1=O)C2 [Compound 2256] | 0.231 nM | 252 nM |  |  |  |
| COc1ccc2c(c1)C(=O)N(C[C@@]1(c3cc4ncc(C(=O)NC5CC5)cc4o3)NC(=O)NC1=O)C2 [Compound 2460] | 0.556 nM |  |  |  | 321 nM |

| Structure (SMILES) | Ki ([1]; read-out: Ki) | IC50 [2, 3] | Ki ([1]; Ki) | IC50 [2, 4] | IC50 [2, 5] |
| --- | --- | --- | --- | --- | --- |
| C#Cc1c(O)ccc2c1C(=O)N(C[C@@]1(c3cc4ncccc4o3)NC(=O)NC1=O)C2 [Compound 1737] | 5.8 nM |  |  | > 10000 nM |  |
| COc1ccc2c(c1)C(=O)N(C[C@@]1(c3cc4cc(CN)ccc4o3)NC(=O)NC1=O)C2 [Compound 2182] | 0.79 nM | 532 nM |  |  |  |
| COc1ccc2c(c1)C(=O)N(C[C@@]1(c3cc4cc(S(N)(=O)=O)ccc4o3)NC(=O)NC1=O)C2 [Compound 2478] | 0.35 nM |  |  |  | 600 nM |
| COc1ccc2c(c1)C(=O)N(C[C@@]1(c3cc4c[n+]([O-])ccc4o3)NC(=O)NC1=O)C2 [Compound 2259] | 1.08 nM | 509 nM |  |  |  |
| COc1ccc2c(c1)C(=O)N(C[C@@]1(c3cc4ncc(C(=NO)N5CCN(c6cnccn6)CC5)cc4o3)NC(=O)NC1=O)C2 [Compound 2469] | 0.59 nM |  |  |  | 546 nM |
| COc1ccc2c(c1)C(=O)N(C[C@@]1(c3cc4cc(-c5cc(O)nn5C)cnc4o3)NC(=O)NC1=O)C2 [Compound 2276] | 0.562 nM | 222 nM |  |  |  |
| COc1ccc2c(c1)C(=O)N(C[C@@]1(c3cc4nc(N(c5cn[nH]c5)C5CCNCC5)ccc4o3)NC(=O)NC1=O)C2 [Compound 1722] |  |  | 0.39 nM | 93 nM |  |
| COc1ccc2c(c1)C(=O)N(C[C@@]1(c3cc4nc(C(=O)NC5CCN(C)CC5)ccc4o3)NC(=O)NC1=O)C2 [Compound 1911] | 1.32 nM |  |  | 317 nM |  |
| COc1ccc2c(c1)C(=O)N(C[C@@]1(c3cc4nc(C(=O)NCCN(C)C)ccc4o3)NC(=O)NC1=O)C2 [Compound 2466] | 0.867 nM |  |  |  | 567 nM |
| CNCc1ccc2oc([C@]3(CN4Cc5ccc(OC)cc5C4=O)NC(=O)NC3=O)cc2c1 [Compound 2185] | 3.99 nM | 1040 nM |  |  |  |
| COc1cc2c(cc1OC)C(=O)N(C[C@@]1(c3cc4cnccc4o3)NC(=O)NC1=O)C2 [Compound 200] | 7.23 nM |  |  | ≥ 10000 nM |  |
| O=C1NC(=O)[C@](CN2Cc3ccc(O)c(F)c3C2=O)(c2cc3ncccc3o2)N1 [Compound 1721] |  |  | 1.64 nM | > 10000 nM |  |
| COc1ccc2c(c1)C(=O)N(C[C@@]1(c3cc4ccc(C(=O)NCC5CCN(C)CC5)cc4o3)NC(=O)NC1=O)C2 [Compound 2411] | 1.14 nM |  |  |  | 348 nM |
| COc1ccc2c(c1)C(=O)N(C[C@@]1(c3cc4nc(CO)ccc4o3)NC(=O)NC1=O)C2 [Compound 1945] | 0.69 nM |  |  | 728 nM |  |
| COc1ccc2c(c1F)C(=O)N(C[C@@]1(c3cc4nc(-c5cccnc5)ccc4o3)NC(=O)NC1=O)C2 [Compound 2218] | 0.232 nM | 1000 nM |  |  |  |
| COc1ccc2c(c1)C(=O)N(C[C@@]1(c3ccc(-c4ccc(C5(C)NC(=O)NC5=O)cc4)cc3)NC(=O)NC1=O)C2 (some centres unmarked) [Compound 2205] | 0.659 nM | ≥ 1000 nM |  |  |  |
| COc1ccc2c(c1)C(=O)N(C[C@@]1(c3cc4nc(-c5cc[nH]c5)ccc4o3)NC(=O)NC1=O)C2 [Compound 1900] | 0.57 nM |  |  | 459 nM |  |
| COc1ccc2c(c1)C(=O)N(CC1(c3cc4cc(-c5cc(=O)[nH]c(N)n5)ccc4o3)NC(=O)NC1=O)C2 (centres unmarked) [Compound 2224] |  | 139 nM | 0.313 nM |  |  |
| COc1ccc2c(c1)C(=O)N(C[C@@]1(c3cc4nc(-c5cnc(OC)nc5OC)ccc4o3)NC(=O)NC1=O)C2 [Compound 1509] | 0.5 nM |  |  | 2920 nM |  |
| COc1ccc2c(c1)C(=O)N(C[C@@]1(c3cc4nc(Nc5c(C)cnn5C)ccc4o3)NC(=O)NC1=O)C2 [Compound 2111] | 0.762 nM | 1130 nM |  |  |  |
| COc1ccc2c(c1)C(=O)N(C[C@@]1(c3ccc(-c4ccc(C5(C)NC(=O)NC5=O)nc4)cc3)NC(=O)NC1=O)C2 (some centres unmarked) [Compound 2206] | 0.82 nM | 1780 nM |  |  |  |
| COc1ccc2c(c1)C(=O)N(C[C@@]1(c3cc4cc(-c5cn[nH]c5)ccc4o3)NC(=O)NC1=O)C2 [Compound 2201] | 0.345 nM | 294 nM |  |  |  |
| COc1ccc2c(c1)C(=O)N(CC1(c3cc4cc(-c5cc(O)[nH]n5)ccc4o3)NC(=O)NC1=O)C2 (centres unmarked) [Compound 2223] | 1.23 nM | 242 nM |  |  |  |
| CCNC(=O)OCc1cnc2cc([C@]3(CN4Cc5ccc(OC)cc5C4=O)NC(=O)NC3=O)oc2c1 [Compound 1944] | 0.69 nM |  |  | 2250 nM |  |
| COc1ccc2c(c1)C(=O)N(C[C@@]1(c3cc4cc(C(=O)NCCN(C)C)ccc4o3)NC(=O)NC1=O)C2 [Compound 2428] | 0.75 nM |  |  |  | 115 nM |
| COc1ccc2c(c1)C(=O)N(C[C@@]1(c3cc4nc(N5CCNC(=O)C5)ccc4o3)NC(=O)NC1=O)C2 [Compound 2114] | 0.306 nM | 193 nM |  |  |  |
| COc1ccc2c(c1)C(=O)N(C[C@@]1(c3cc4cc(-c5c(OC(C)C)noc5C)cnc4o3)NC(=O)NC1=O)C2 [Compound 501] | 0.844 nM |  |  | 1590 nM |  |
